{
  "source": "patent US20070218189A1",
  "about": "“Reduction inhibitory agent for active oxygen eliminating-activity” (KABUSHIKI KAISHA HAYASHIBARA SEIBUTSU KAGAKU KENYUJO, priority 2001, published 2007)",
  "assay_type_in_all_cases": "biochemical",
  "key": {"[1]": {"test_system": "superoxide, formed in a xanthine-xanthine oxidase system", "assay": "Active oxygen eliminating activity of powdery vegetable compositions with or without cyclotetrasaccharide before and after storage (Experiment 6)", "conditions": "carrot, onion, Japanese radish, cabbage, spinach, cucumber, pumpkin; in words"}, "[2]": {"test_system": "superoxide, formed in a xanthine-xanthine oxidase system", "assay": "Influence of cyclotetrasaccharide concentration on active oxygen eliminating activity of powdery carrot compositions, NBT test (Experiment 5)", "conditions": "for Activity (unit/g) After storage / Percentage of residual activity (%): 40° C. seven days", "description": "(§1) Fresh raw carrots were disrupted by a mixer, and saccharides were respectively added to the mixture and dissolved therein to give a concentration of 10%, d.s.b. The solutions were dried under a reduced pressure at 40° C. for two days, dried in vacuo at the same temperature for 24 hours, and pulverized by a mixer into powdery carrot compositions. […] An about 100 g each of the compositions was placed and sealed in a 500-ml polystyrene container, and stored at 40° C. for seven days. The active oxygen eliminating activities of the compositions before and after storage were compared with each other. The active oxygen eliminating activity was assayed by the nitro blue tetrazolium (NBT) test by Toshio IMANARI et al. in Igakuno Ayumi, Vol. 101, pp. 496-497 (1977), and the level of superoxide, formed in a xanthine-xanthine oxidase system, was assayed by quantifying calorimetrically the content of formazan formed by reducing NBT. As a control, refined water was used as a test solution. One unit activity of active oxygen eliminating activity was defined as that inhibited 50% formazan formation as compared with the control. […] Thus cyclotetrasaccharide is preferable as an effective ingredient for a reduction inhibitory agent for active oxygen eliminating activity.\nSimilarly as in Experiment 3, cyclotetrasaccharide was respectively mixed with and dissolved in disrupted carrots to give concentrations of 0-20%, d.s.b. The resulting mixtures were dried in vacuo at 40° C. for 24 hours, and pulverized into powdery carrot compositions. Similarly as in Experiment 3, each powdery composition was placed and sealed in a polystyrene container, and stored at 40° C. for seven days for evaluating the reduction inhibitory activity for active oxygen activity. The active oxygen eliminating activity of one gram each of powdery compositions before and after storage was measured by the method in Experiment 3."}, "active oxygen": {"test_system": "active oxygen", "assay": "Active oxygen eliminating activity of superoxide dismutase and antioxidants in cyclotetrasaccharide solution or water before and after storage (Experiment 7)", "conditions": "30% (w/v) cyclotetrasaccharide solution; superoxide dismutase, α-glucosyl hesperidin, α-glucosyl rutin, gallic acid, catechin; in words", "description": "In one milliliter of 30% (w/v) cyclotetrasaccharide solution, which is prepared by using cyclotetrasaccharide obtained in Experiment 2, was dissolved five micrograms (μ g) of superoxide dismutase from a horseradish commercialized by Sigma Chemical Co., St. Louis, USA, 10 mg of α-glucosyl hesperidin commercialized by Hayashibara Biochemical Laboratories, Inc., Okayama Japan, 10 mg of α-glucosyl rutin commercialized by Hayashibara Biochemical Laboratories, Inc., Okayama, Japan, 250 μg of gallic acid commercialized by Wako Pure Chemical Industries, Ltd., Tokyo, Japan, or 50 μg of catechin to obtain a liquid composition. Each of the compositions was placed in a glass test tube, sealed with a rubber cap, and stored under a dark condition. As a control, water was used in place of the cyclotetrasaccharide solution."}, "[3]": {"test_system": "superoxide, formed in a xanthine-xanthine oxidase system", "assay": "Active oxygen eliminating activity of powdery carrot compositions with saccharides before and after storage, nitro blue tetrazolium (NBT) test (Experiment 3)", "description": "as §1"}, "[4]": {"test_system": "superoxide, formed in a hypoxanthine-xanthine oxidase system", "assay": "Active oxygen eliminating activity of powdery carrot compositions with saccharides before and after storage, electron spin resonance (ESR) test (Experiment 4)", "description": "Fresh raw carrots were disrupted as Experiment 3, and saccharides were respectively added to the mixture and dissolved therein to give a concentration of 10%, d.s.b. The solutions were dried under a reduced pressure at 40° C. for one day, dried in vacuo at the same temperature for 17 hours, and pulverized by a mixer into powdery carrot compositions. […] About 100 g each of the compositions was placed and sealed in a 500-ml polystyrene container, and stored at 40° C. for seven or fourteen days. The active oxygen eliminating activities of the compositions before and after storage were compared with each other. The active oxygen eliminating activity was assayed by the electron spin resonance (ESR) test by Toshihiko OZAWA in BUNSEKI, Vol. 2, pp. 68-74 (2000), and the level of superoxide, formed in a hypoxanthine-xanthine oxidase system, was assayed by the spin-trapping with 5,5-dimethyl-1-pyrroline-N-oxide in ESR."}, "[5]": {"conditions": "0.1% cyclotetrasaccharide added to carrot (content 1.0% d.s.b.)"}, "[6]": {"conditions": "0.5% cyclotetrasaccharide added to carrot (content 4.9% d.s.b.)"}, "[7]": {"conditions": "1.0% cyclotetrasaccharide added to carrot (content 9.4% d.s.b.)"}, "[8]": {"conditions": "2.5% cyclotetrasaccharide added to carrot (content 20.7% d.s.b.)"}, "[9]": {"conditions": "5.0% cyclotetrasaccharide added to carrot (content 34.2% d.s.b.)"}, "[10]": {"conditions": "10.0% cyclotetrasaccharide added to carrot (content 51.1% d.s.b.)"}, "[11]": {"conditions": "20.0% cyclotetrasaccharide added to carrot (content 67.6% d.s.b.)"}, "[12]": {"conditions": "powdery carrot composition, saccharide added at 10% d.s.b., stored at 40° C. for seven days"}},
  "data": [
    {"smiles": "OCC1OC2OCC3O[C@H](O[C@H]4C(O)C(CO)OC(OCC5O[C@H](O[C@@H](C1O)C2O)C(O)C(O)[C@@H]5O)C4O)C(O)C(O)[C@@H]3O", "note": "(stereo partly drawn) [Cyclotetrasaccharide, cyclo{→6)-α-D-glucopyranosyl-(1→3)-α-D-glucopyranosyl-(1→6)-α-D-glucopyranosyl-(1→3)-α-D-glucopyranosyl-(1→}]", "values": [
      {"measurement": "reduction inhibitory activity for active oxygen eliminating activity by incorporating cyclotetrasaccharide", "setting": "[1]", "value": "observed in many vegetables"},
      {"measurement": "Activity (unit/g) After storage", "setting": "[2]; [5]", "value": 390, "unit": "unit/g"},
      {"measurement": "Percentage of residual activity (%)", "setting": "[2]; [5]", "value": 42, "unit": "%"},
      {"measurement": "Activity (unit/g) Before storage", "setting": "[2]; [5]", "value": 930, "unit": "unit/g"},
      {"measurement": "Activity (unit/g) After storage", "setting": "[2]; [6]", "value": 470, "unit": "unit/g"},
      {"measurement": "Percentage of residual activity (%)", "setting": "[2]; [6]", "value": 57, "unit": "%"},
      {"measurement": "Activity (unit/g) Before storage", "setting": "[2]; [6]", "value": 820, "unit": "unit/g"},
      {"measurement": "Activity (unit/g) After storage", "setting": "[2]; [7]", "value": 450, "unit": "unit/g"},
      {"measurement": "Percentage of residual activity (%)", "setting": "[2]; [7]", "value": 61, "unit": "%"},
      {"measurement": "Activity (unit/g) Before storage", "setting": "[2]; [7]", "value": 740, "unit": "unit/g"},
      {"measurement": "Activity (unit/g) After storage", "setting": "[2]; [8]", "value": 460, "unit": "unit/g"},
      {"measurement": "Percentage of residual activity (%)", "setting": "[2]; [8]", "value": 66, "unit": "%"},
      {"measurement": "Activity (unit/g) Before storage", "setting": "[2]; [8]", "value": 700, "unit": "unit/g"},
      {"measurement": "Activity (unit/g) After storage", "setting": "[2]; [9]", "value": 340, "unit": "unit/g"},
      {"measurement": "Percentage of residual activity (%)", "setting": "[2]; [9]", "value": 62, "unit": "%"},
      {"measurement": "Activity (unit/g) Before storage", "setting": "[2]; [9]", "value": 550, "unit": "unit/g"},
      {"measurement": "Activity (unit/g) After storage", "setting": "[2]; [10]", "value": 290, "unit": "unit/g"},
      {"measurement": "Percentage of residual activity (%)", "setting": "[2]; [10]", "value": 69, "unit": "%"},
      {"measurement": "Activity (unit/g) Before storage", "setting": "[2]; [10]", "value": 420, "unit": "unit/g"},
      {"measurement": "Activity (unit/g) After storage", "setting": "[2]; [11]", "value": 280, "unit": "unit/g"},
      {"measurement": "Percentage of residual activity (%)", "setting": "[2]; [11]", "value": 64, "unit": "%"},
      {"measurement": "Activity (unit/g) Before storage", "setting": "[2]; [11]", "value": 390, "unit": "unit/g"},
      {"measurement": "reducing inhibitory activity for active oxygen eliminating activity of plant antioxidants", "setting": "active oxygen", "value": "effective reducing inhibitory activity"},
      {"measurement": "Activity (unit/g) After storage", "setting": "[3]; [12]", "value": 390, "unit": "unit/g"},
      {"measurement": "Percentage of residual activity (%)", "setting": "[3]; [12]", "value": 66, "unit": "%"},
      {"measurement": "Activity (unit/g) Before storage", "setting": "[3]; powdery carrot composition, saccharide added to disrupted carrots at 10% d.s.b., before storage", "value": 590, "unit": "unit/g"},
      {"measurement": "residual percentage / reduction inhibitory activity for active oxygen eliminating activity among the saccharides tested", "setting": "[3]; powdery carrot compositions, 40° C. seven days, in words", "value": "highest residual percentage"},
      {"measurement": "Activity (unit/g) Before storage", "setting": "[4]; powdery carrot composition, saccharide added at 10% d.s.b., before storage", "value": 186, "unit": "unit/g"},
      {"measurement": "Activity (unit/g) After two weeks storage", "setting": "[4]; powdery carrot composition, stored at 40° C. for fourteen days", "value": 66, "unit": "unit/g"},
      {"measurement": "percentage of residual activity After two weeks storage", "setting": "[4]; powdery carrot composition, stored at 40° C. for fourteen days, numerals in parentheses", "value": 36, "unit": "%"},
      {"measurement": "Activity (unit/g) After one week storage", "setting": "[4]; powdery carrot composition, stored at 40° C. for seven days", "value": 88, "unit": "unit/g"},
      {"measurement": "percentage of residual activity After one week storage", "setting": "[4]; powdery carrot composition, stored at 40° C. for seven days, numerals in parentheses", "value": 47, "unit": "%"},
      {"measurement": "residual percentage for active oxygen eliminating activity among the saccharides tested", "setting": "[4]; powdery carrot compositions, in words", "value": "highest residual percentage"}
    ]}
  ]
}
